# Experimental data reported in patent publication US20260356860A1, “2-SUBSTITUTED 3,4A,5,7,8,8A-HEXAHYDRO-4H-THIOPYRANO[4,3-DJPYRIMIDIN-4-ONES FOR WOUND TREATMENT” (priority 2022, published 2026).
# Columns and labels:
# [1] = system: HEK293 SuperTOPFlash reporter cells, Wnt promoter; assay: HEK CELL Wnt Assay (luciferase reporter); assay type: cell-based; conditions: serial dilutions, with or without 50 ng/mL Wnt3a; 18 h
# Description: In order to determine the effect of the compounds of Formula (I) on Wnt inhibition, an in vitro assay using HEK293 SuperTOPFlash reporter cells, with the Wnt promoter driving a luciferase reporter gene, were utilized. 40,000 HEK293 SuperTOPFlash reporter cells were seeded, per well, in a 48 well plate for 24 hours, prior to administration of serial dilutions of the compound of Formula (I) to individual wells. Serial dilutions ranging from […] to 1 nM of the compound of Formula (I) were added with or without 50 ng/mL Wnt3a (Time Biosciences) and allowed to incubate with the reporter cells for 18 hours. Reporter cells with no treatment were used as negative control.
# [2] = system: E. coli (derived from ATCC ® 25922 ™); assay: Bacteriostasis, log reduction; assay type: cell-based; conditions: E. coli ATCC 25922
# Description: (§1) In order to assess the log reduction capabilities of compounds of Formula (1), testing was performed on organisms that are found in acute and chronic wounds. Triplicate tubes were prepared for each bacteria using 50 μL of inoculum (about 1×10^6 CFU/mL) which was added to 450 μL of compound solution (compound of Formula (I)) (or 100 μL of inoculum in 900 μL of compound solution), resulting in a final inoculum of about 1×10^5 CFU/mL, as shown in Table 4.
# (§2) Tubes were mixed with a vortex and then incubated in a shaking incubator at 175 RPM and 35° C. to 37° C.
# (§3) Positive control in Tables 5a and 5b was 1 mL of 0.89% saline with 1 mL of the 1×10^6 CFU/mL of the organism.
# (§4) For Compounds 1, 7, 8, 10, and 18 in Tables 6, 7-A, 7-B, 8, 9, 10-A, 10-B, and 11: The compound solutions were prepared with compound (30 mg), polysorbate 20 (1.6 mL), butylene glycol (1.6 mL), phosphatidyl choline (0.66 g), ethanol (1.6 mL), hydroxypropyl cellulose (0.26 g), and ultra pure water (24.9 mL).
# (§5) XAV939 Control in Table X1 was XAV939 (30 mg), polysorbate 20 (1.6 mL), butylene glycol (1.6 mL), phosphatidyl choline (0.66 g), ethanol (1.6 mL), ultra pure water (24.9 mL), and hydroxypropyl cellulose (0.26 g).
# (§6) GO-HA Control in Table X2 was GO-HA (30 mg), polysorbate 20 (1.6 mL), butylene glycol (1.6 mL), phosphatidyl choline (0.66 g), ethanol (1.6 mL), ultra pure water (24.9 mL), and hydroxypropyl cellulose (0.26 g).
# (§7) For Compound 18+GO-HA in Tables 6 and X4: compound 18 (45 mg), GO-HA (45 mg), polysorbate 20 (2 mL), butylene glycol (2 mL), phosphotidyl choline (0.5 g), ethanol (2 mL), hydroxypropyl cellulose (0.40 g), and ultra pure water (40 mL).
# (§8) For XAV939+GO-HA in Tables 6 and X3-A, and X3-B: XAV939 (45 mg), GO-HA (45 mg), butylene glycol (2 mL), polysorbate 20 (2 mL), phosphotidyl choline (0.5 g), ethanol (2 mL), hydroxypropyl cellulose (0.40 g), and ultra pure water (40 mL).
# (§9) Testing was performed at two time points: 18 to 24 hours, and […].
# [3] = system: E. coli (derived from ATCC ® 8739 ™); assay: Bacteriostasis, log reduction; assay type: cell-based; conditions: E. coli ATCC 8739
# Description: as §1, §2, §3, §4, §5, §6, §7, §8, §9
# [4] = system: E. faecalis (derived from ATCC ® 19433 ™); assay: Bacteriostasis, log reduction; assay type: cell-based; conditions: E. faecalis ATCC 19433
# Description: as §1, §2, §3, §4, §5, §6, §7, §8, §9
# [5] = system: P. aeruginosa (derived from ATCC ® 15442 ™); assay: Bacteriostasis, log reduction; assay type: cell-based; conditions: P. aeruginosa ATCC 15442
# Description: as §1, §2, §3, §4, §5, §6, §7, §8, §9
# [6] = system: S. aureus (MRSA) (derived from ATCC ® 33593 ™); assay: Bacteriostasis, log reduction; assay type: cell-based; conditions: S. aureus (MRSA) ATCC 33593
# Description: as §1, §2, §3, §4, §5, §6, §7, §8, §9
# [7] = system: S. aureus (derived from ATCC ® 6538 ™); assay: Bacteriostasis, log reduction; assay type: cell-based; conditions: S. aureus ATCC 6538
# Description: as §1, §2, §3, §4, §5, §6, §7, §8, §9
# [8] = system: S. epidermidis (derived from ATCC ® 14990 ™); assay: Bacteriostasis, log reduction; assay type: cell-based; conditions: S. epidermidis ATCC 14990
# Description: as §1, §2, §3, §4, §5, §6, §7, §8, §9
# TK 1 = conditions: cell-free assay; read-out: IC50, TK 1 inhibition; cited from earlier work
# TK2 = conditions: cell-free assay; read-out: IC50, TK2 inhibition; cited from earlier work
# CRE, F-κB, or TGF-β = conditions: cited from earlier work
# [9] = cited from earlier work
# ear punch wound = conditions: cited from earlier work
# wound = conditions: in a GO-HA matrix; cited from earlier work
compound,measurement,setting,value
"Oc1nc(-c2ccc(C(F)(F)F)cc2)nc2c1CSCC2 [XAV939, reference compound]",IC50,[1],50 nM
same,Average result,[2]; 24 h,2.8 × 10^4
same,Log Reduction,[2]; 24 h,1.0
same,Log Value,[2]; 24 h,4.4
same,Average result,[2]; 72 h,<200
same,Log Reduction,[2]; 72 h,>3.1
same,Log Value,[2]; 72 h,<2.3
same,Average result,[3]; 24 h,2.7 × 10^3
same,Log Reduction,[3]; 24 h,1.9
same,Log Value,[3]; 24 h,3.4
same,Average result,[3]; 72 h,<200
same,Log Reduction,[3]; 72 h,>3.0
same,Log Value,[3]; 72 h,<2.3
same,Average result,[4]; 24 h,2.6 × 10^5
same,Log Reduction,[4]; 24 h,No
same,Log Value,[4]; 24 h,5.4
same,Average result,[4]; 72 h,1.7 × 10^5
same,Log Reduction,[4]; 72 h,No
same,Log Value,[4]; 72 h,5.1
same,Average result,[5]; 24 h,<200
same,Log Reduction,[5]; 24 h,>3.1
same,Log Value,[5]; 24 h,<2.3
same,Average result,[5]; 72 h,<200
same,Log Reduction,[5]; 72 h,>3.1
same,Log Value,[5]; 72 h,<2.3
same,Average result,[6]; 24 h,8.7 × 10^4
same,Log Reduction,[6]; 24 h,No
same,Log Value,[6]; 24 h,4.9
same,Average result,[6]; 72 h,<6.8 × 10^3
same,Log Reduction,[6]; 72 h,>0.8
same,Log Value,[6]; 72 h,<3.8
same,Average result,[7]; 24 h,2.5 × 10^3
same,Log Reduction,[7]; 24 h,1.9
same,Log Value,[7]; 24 h,3.4
same,Average result,[7]; 72 h,1.7 × 10^5
same,Log Reduction,[7]; 72 h,0.1
same,Log Value,[7]; 72 h,5.2
same,Average result,[8]; 24 h,5.5 × 10^4
same,Log Reduction,[8]; 24 h,0.1
same,Log Value,[8]; 24 h,4.7
same,Average result,[8]; 72 h,<200
same,Log Reduction,[8]; 72 h,>2.5
same,Log Value,[8]; 72 h,<2.3
same,IC50,TK 1,11 nM
same,IC50,TK2,4 nM
same,"effect on CRE, F-κB, or TGF-β","CRE, F-κB, or TGF-β","does not affect CRE, F-κB, or TGF-β"
same,solubility in water-based solutions,[9],poor solubility in water-based solutions
same,aqueous solubility,[9]; water,< 1 µg/mL
same,cartilage regeneration and healing,ear punch wound; 2 mm biopsy punch wound in cartilaginous region of C57B1/CJ mouse,increased cartilage regeneration and healing
same,wound closure rate and fibrosis,"ear punch wound; topical, mouse ear punch",significantly increased rate of wound closure with reduced fibrosis (scarring)
same,quality of wound healing,wound,substantial improvement to the quality of wound healing
